Our source for the EC50, melting point and Ki values is US7169932B2 (priority 2001, dated 2007).

In series [1] the test system is HIV-1. Description: Cytopathic Effect (CPE) Inhibition Assay (XTT dye reduction). The series is classed as cell-based. The following applies: for EC50: Human immunodeficiency virus 1, 144 h, read-out: Ave CPE EC50 (mM). An outline of the steps: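 CEM-SS or MT-2 cells infected with HIV-1 RF or NL4–3 (moi 0.025–0.819), 2×10^4 cells/well, incubated six days with half-log compound dilutions. Viability read by XTT formazan at 450 nm; EC50 is the concentration restoring 50% of uninfected-control formazan, CC50 from uninfected treated cells, therapeutic index CC50/EC50.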
(Protection from cytopathic effect is a common read-out in antiviral testing.)

Series [2] has as its target T1, HIV-1 protease (Q7S) (Human immunodeficiency virus type 1 group M subtype B, UniProt P04585, Q495S).
T1 construct: made in house
Put plainly: HIV-1 Protease RET Assay. The following applies: for Ki: Ave. Ki (nM), RET assay, Q7S enzyme, pH 4.8, 37 C. The series is classed as biochemical. An outline of the steps: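 Ki values came from a RET assay on refolded Q7S protease (2 nM active dimer) cleaving RE(EDANS)SQNYPIVQK(DABCYL)R at 5 μM, read at ex 340/em 490 nm. Reactions ran 12 min at 37 C in 0.1M sodium acetate pH 4.8, 1M NaCl, 5 mM DTT, 10% DMSO; curves were fit with the Morrison tight-binding equation.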

pEC50, pKi: −log10 of the molar value. Where two headings read alike, the source gives them in different places.

As usually defined, the EC50 is the concentration that produces a half-maximal response. A word on the melting point: it is the temperature, or range, at which the solid turns liquid. For orientation: Ki means the equilibrium dissociation constant of an inhibitor or competing ligand from its target. Higher therefore signals a looser hold on the target. A word on the pEC50: it is −log10 of the EC50, conventionally taken in molar units. Low values mean a large EC50, high ones a small EC50. One may read the pKi as the Ki on a negative log10 scale, so that one unit is a factor of ten.

On to `Cc1c(O)cccc1C(=O)N[C@@H](Cc1ccccc1)[C@H](O)C(=O)N1CSC(C)(C)[C@H]1C(=O)NCc1cccc(N(C)C)c1` [Example A39, (R)-3-((2S,3S)-2-Hydroxy-3-{[1-(3-hydroxy-2-methyl-phenyl)-methanoyl]-amino}-4-phenyl-butanoyl)-5,5-dimethyl-thiazolidine-4-carboxylic acid 3-dimethylamino-benzylamide], for which the melting point lay within 105 to 106 °C. In addition, in series [1], the EC50 turned out to be 367 nM. Further, the Ki in series [2] was 0.27 nM.

In the case of `CC/C=C/CNC(=O)[C@H]1N(C(=O)[C@@H](O)[C@H](Cc2ccccc2)NC(=O)c2cccc(O)c2C)CSC1(C)C` [Example A36, (R)-3-((2S,3S)-2-Hydroxy-3-{[1-(3-hydroxy-2-methyl-phenyl)-methanoyl]-amino}-4-phenyl-butanoyl)-5,5-dimethyl-thiazolidine-4-carboxylic acid (E)-pent-2-enylamide], the melting point was 113 to 115 °C. For the same compound, the EC50 in series [1] is 519 nM. In series [2], this compound registered a Ki of 0.59 nM.

For `Cc1c(O)cccc1C(=O)N[C@@H](Cc1ccccc1)[C@H](O)C(=O)N1CSC(C)(C)[C@H]1C(=O)N[C@H](C)c1ccccc1` [Example A21, (R)-3-((2S,3S)-2-Hydroxy-3-{[1-(3-hydroxy-2-methyl-phenyl)-methanoyl]-amino}-4-phenyl-butanoyl)-5,5-dimethyl-thiazolidine-4-carboxylic acid ((R)-1-phenyl-ethyl)-amide], the melting point was in the range of 114 to 115 °C. Besides, the 50% effective concentration (EC50) in series [1] was 717 nM. Besides, affinity in series [2] was put at a Ki of 1.9 nM.

With `Cc1c(O)cccc1C(=O)N[C@@H](Cc1ccccc1)[C@H](O)C(=O)N1CSC(C)(C)[C@H]1C(=O)NCc1cccc(OC(F)(F)F)c1` [Example A25, (R)-3-((2S,3S)-2-Hydroxy-3-{[1-(3-hydroxy-2-methyl-phenyl)-methanoyl]-amino}-4-phenyl-butanoyl)-5,5-dimethyl-thiazolidine-4-carboxylic acid 3-trifluoromethoxy-benzylamide], the melting point was 102 to 105 °C. For the same compound, the EC50 in series [1] turned out to be 248 nM. The compound further displayed a Ki in series [2] of 5.8 nM.

For the compound `Cc1ccccc1CNC(=O)[C@H]1N(C(=O)[C@@H](O)[C@H](Cc2ccccc2)NC(=O)c2ccno2)CSC1(C)C` [Example B2, Isoxazole-5-carboxylic acid {(1S,2S)-1-benzyl-3-[(R)-5,5-dimethyl-4-(2-methyl-benzylcarbamoyl)-thiazolidin-3-yl]-2-hydroxy-3-oxo-propyl}-amide], the melting point was 82 to 84 °C. In addition, in series [1], the EC50 is 369 nM. In series [2], the Ki stood at 0.78 nM.

Compound `C=CCNC(=O)[C@H]1N(C(=O)[C@@H](O)[C@H](Cc2ccccc2)NC(=O)c2cccc(O)c2C)CSC1(C)C` had a melting point of 173 to 175 °C.

For `Cc1ccccc1CNC(=O)[C@H]1N(C(=O)[C@@H](O)[C@H](Cc2ccccc2)NC(=O)c2cccs2)CSC1(C)C` [Example B5, (R)-3-{(2S,3S)-2-Hydroxy-4-phenyl-3-[(1-thiophen-2-yl-methanoyl)-amino]-butanoyl}-5,5-dimethyl-thiazolidine-4-carboxylic acid 2-methyl-benzylamide], the melting point was 98 to 101 °C. Moreover, the EC50 in series [1] is 508 nM. The same compound yielded an inhibition constant (Ki) in series [2] of 1.6 nM.

With `Cc1c(O)cccc1C(=O)NC(Cc1ccccc1)C(O)C(=O)N1CSC(C)(C)C1C(=O)NCc1cccc(C(F)(F)F)c1` (stereo not shown) [Example A4, 3-(2-Hydroxy-3-{[1-(3-hydroxy-2-methyl-phenyl)-methanoyl]-amino}-4-phenyl-butanoyl)-5,5-dimethyl-thiazolidine-4-carboxylic acid 3-trifluoromethyl-benzylamide], the melting point was in the range of 108 to 110 °C. Moreover, the EC50 in series [1] came to 591 nM. This compound also displayed a Ki in series [2] of 4.1 nM.

In the case of `Cc1ccccc1CNC(=O)[C@H]1N(C(=O)[C@@H](O)[C@H](Cc2ccccc2)NC(=O)[C@@H]2CCCO2)CSC1(C)C` [Example B7, (R)-3-{(2S,3S)-2-Hydroxy-4-phenyl-3-[((S)-1-tetrahydro-furan-2-yl-methanoyl)-amino]-butanoyl}-5,5-dimethyl-thiazolidine-4-carboxylic acid 2-methyl-benzylamide], the melting point lay within 82 to 84 °C. In addition, the EC50 in series [1] is 680 nM. In series [2], the affinity corresponds to a Ki of 1.9 nM.

`COc1ccccc1CNC(=O)[C@H]1N(C(=O)C(O)C(Cc2ccccc2)NC(=O)c2cccc(O)c2C)CSC1(C)C` (stereo partly drawn) [Example A3, (R)-3-(2-Hydroxy-3-{[1-(3-hydroxy-2-methyl-phenyl)-methanoyl]-amino}-4-phenyl-butanoyl)-5,5-dimethyl-thiazolidine-4-carboxylic acid 2-methoxy-benzylamide] gave a melting point of 123 to 125 °C. Moreover, in series [1], the EC50 is 370 nM. In series [2], affinity was put at a Ki of 1.7 nM.

Turning to `CC/C=C\CNC(=O)[C@H]1N(C(=O)[C@@H](O)[C@H](Cc2ccccc2)NC(=O)c2cccc(O)c2C)CSC1(C)C` [Example A37, (R)-3-((2S,3S)-2-Hydroxy-3-{[1-(3-hydroxy-2-methyl-phenyl)-methanoyl]-amino}-4-phenyl-butanoyl)-5,5-dimethyl-thiazolidine-4-carboxylic acid (Z)-pent-2-enylamide], the melting point fell in the range of 112 to 113 °C. Further, in series [1], the EC50 came out at 161 nM. The affinity in series [2] corresponds to a Ki of 0.13 nM.

Compound `Cc1ccccc1CNC(=O)[C@H]1N(C(=O)[C@@H](O)[C@H](Cc2ccccc2)NC(=O)c2ccsc2)CSC1(C)C` [Example B6, (R)-3-{(2S,3S)-2-Hydroxy-4-phenyl-3-[(1-thiophen-3-yl-methanoyl)-amino]-butanoyl}-5,5-dimethyl-thiazolidine-4-carboxylic acid 2-methyl-benzylamide] displayed a melting point of 98 to 100 °C. In series [1], the EC50 was 589 nM. Further, the Ki in series [2] was determined as 1.6 nM.

On to `Cc1c(O)cccc1C(=O)N[C@@H](Cc1ccccc1)[C@H](O)C(=O)N1CSC(C)(C)[C@H]1C(=O)NCc1ccc(OC(F)(F)F)cc1` [Example A47, (R)-3-((2S,3S)-2-Hydroxy-3-{[1-(3-hydroxy-2-methyl-phenyl)-methanoyl]-amino}-4-phenyl-butanoyl)-5,5-dimethyl-thiazolidine-4-carboxylic acid 4-trifluoromethoxy-benzylamide], for which the EC50 in series [1] came to 1810 nM. In series [2], the affinity corresponds to a Ki of 2.3 nM.

In the case of `Cc1c(O)cccc1C(=O)N[C@@H](Cc1ccccc1)[C@H](O)C(=O)N1CSC(C)(C)[C@H]1C(=O)NCc1cccc(N)c1` [Example A29, (R)-3-((2S,3S)-2-Hydroxy-3-{[1-(3-hydroxy-2-methyl-phenyl)-methanoyl]-amino}-4-phenyl-butanoyl)-5,5-dimethyl-thiazolidine-4-carboxylic acid 3-amino-benzylamide], the concentration giving a half-maximal response (EC50) in series [1] was 117 nM. In series [2], this compound registered an inhibitory constant (Ki) of less than 0.1 nM.

As to `Cc1ccccc1CNC(=O)[C@H]1N(C(=O)[C@@H](O)[C@H](Cc2ccccc2)NC(=O)c2ccon2)CSC1(C)C` [Example B3, Isoxazole-3-carboxylic acid {(1S,2S)-1-benzyl-3-[(R)-5,5-dimethyl-4-(2-methyl-benzylcarbamoyl)-thiazolidin-3-yl]-2-hydroxy-3-oxo-propyl}-amide], the concentration giving a half-maximal response (EC50) in series [1] is 409 nM. Further, the Ki in series [2] was 4 nM.

The compound `Cc1c(O)cccc1C(=O)N[C@@H](Cc1ccccc1)[C@H](O)C(=O)N1CSC(C)(C)[C@H]1C(=O)NCc1ccc(N)cc1` [Example A16, (R)-3-((2S,3S)-2-Hydroxy-3-{[1-(3-hydroxy-2-methyl-phenyl)-methanoyl]-amino}-4-phenyl-butanoyl)-5,5-dimethyl-thiazolidine-4-carboxylic acid 4-amino-benzylamide] gave a melting point of 107 to 109 °C. In addition, the EC50 in series [1] worked out at 134 nM. The same compound registered an inhibition constant Ki in series [2] of 0.63 nM.

`Cc1c(O)cccc1C(=O)N[C@@H](Cc1ccccc1)[C@H](O)C(=O)N1CSC(C)(C)[C@H]1C(=O)NC/C=C/C(F)(F)F` [Example A40, (R)-3-((2S,3S)-2-Hydroxy-3-{[1-(3-hydroxy-2-methyl-phenyl)-methanoyl]-amino}-4-phenyl-butanoyl)-5,5-dimethyl-thiazolidine-4-carboxylic acid ((E)-4,4,4-trifluoro-but-2-enyl)-amide]: in series [1], the EC50 came out at 275 nM. This compound also yielded a Ki in series [2] of 1.2 nM.

For `Cc1c(O)cccc1C(=O)N[C@@H](Cc1ccccc1)[C@H](O)C(=O)N1CSC(C)(C)[C@H]1C(=O)NCC(C)(C)C`, in series [1] (Human immunodeficiency virus 1), the pEC50 was 7.28. For the same compound, the pKi in series [2] (Ki, table of drawn compounds, unit inferred) is not below 10.00.

With `Cc1c(O)cccc1C(=O)N[C@@H](Cc1ccccc1)[C@H](O)C(=O)N1CSC(C)(C)[C@H]1C(=O)NCCCl` [Example A49, (R)-3-[(2S,3S)-2-Hydroxy-3-(3-hydroxy-2-methyl-benzoylamino)-4-phenyl-butyryl]-5,5-dimethyl-thiazolidine-4-carboxylic acid (2-chloro-ethyl)-amide], the half-maximal effective concentration (EC50) in series [1] came to 130 nM. The compound further had an inhibition constant (Ki) in series [2] of 1.2 nM.
